molecular target: T1, COX-2 (Homo sapiens, UniProt P35354); test: Inhibition of COX: arachidonic acid metabolism; type: biochemical; conditions: 25 nmoles compound with 25 nmoles AA, 250 μL, 2 min
T1 construct: purchased Cayman Chemical
T1 sequence (P35354 18-604): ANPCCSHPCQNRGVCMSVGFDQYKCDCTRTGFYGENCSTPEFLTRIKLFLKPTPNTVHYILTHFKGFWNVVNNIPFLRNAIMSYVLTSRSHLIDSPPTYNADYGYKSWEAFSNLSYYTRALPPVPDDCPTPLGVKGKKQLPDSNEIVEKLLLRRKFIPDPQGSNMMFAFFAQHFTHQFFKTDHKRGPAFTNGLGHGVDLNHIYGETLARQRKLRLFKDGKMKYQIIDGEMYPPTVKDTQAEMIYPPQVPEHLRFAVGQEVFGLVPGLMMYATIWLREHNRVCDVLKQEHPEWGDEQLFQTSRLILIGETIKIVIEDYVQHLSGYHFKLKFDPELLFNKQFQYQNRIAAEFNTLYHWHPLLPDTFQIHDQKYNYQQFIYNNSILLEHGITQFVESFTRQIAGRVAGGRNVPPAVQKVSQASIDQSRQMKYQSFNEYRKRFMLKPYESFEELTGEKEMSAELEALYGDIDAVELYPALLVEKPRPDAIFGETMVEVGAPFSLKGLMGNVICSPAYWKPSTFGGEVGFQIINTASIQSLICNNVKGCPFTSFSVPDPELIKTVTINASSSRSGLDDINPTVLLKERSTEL
Description: All compound solutions were made to a concentration of 10 mM in DMSO. Three tests were performed on each compound: hydrolysis, to determine the stability of the compound in assay conditions without the enzyme present; metabolism, to determine the stability of the compound with the enzyme present; and inhibition of arachidonic acid (AA) metabolism.
To test the stability of the compounds in enzyme assay conditions, 25 nmoles of the compound were incubated with 12.5 μl 100 uM hematin in assay buffer (0.1M PH8.0 Tris-HCl, 2 mM phenol, 5 mM EDTA, 0.1% BSA, final volume of 250 μL) for 2 minutes at 25° C. Samples (100 μL) were taken at the start of the assay and after 2 minutes, diluted 1:5 with acetonitrile and centrifuged (20,000 RCF, five minutes, room temperature) to precipitate the proteins. The resulting supernatant was injected onto the HPLC. Calculations for determining the percent compound remaining are described in the following equation: % R=Peak Area(T2)/Peak Area(T0) To determine whether or not the compounds were good substrates for COX enzyme, 25 nmoles of the compound were incubated with 12.5 μl COX enzyme (purchased form Cayman Chemical) and 5 uM hematin in assay buffer (final volume 250 μL). The reaction mixture was treated in the same manner as described above. Concentrations of AA were calculated using external standards. […] Again the reaction mixture was treated in the same manner as described above and the concentrations of AA were calculated using external standards. Percent inhibition was calculated using the following equation: % Inhib.=(AA0-AA2)i/(AA0-AA2)s where (AA0-AA2)i is the amount of arachidonic acid metabolized over 2 minutes with the inhibitor present and (AA0-AA2)s is the amount of arachidonic acid metabolized over 2 minutes when the inhibitor is not present. […] The reaction mixtures were treated as described above and the amount of AA metabolized was calculated. The software package GraphPad Prism was utilized to calculate IC50 and Ki. HPLC Conditions:
Chromatographic separation was achieved using an Ultrasphere ODS Pre-column (4.6×45 mm) from Beckman. Hardware consisted of a Waters Millennium HPLC system with a 20 μL injection loop. The mobile phase consisted of 8.5% o-phosphoric acid:acetonitrile (3:7), run isocratically at a rate of 1 mL/min and detection at 204 nm. The total run time was 8 minutes with AA at 6.0 minutes.

Going from O=C(CCC/C=C\C/C=C\C/C=C\C/C=C\CCCCc1ccccc1)NCC1CC1 [Compound A1] to O=C(CCC/C=C\C/C=C\C/C=C\C/C=C\CCc1ccccc1)Nc1ccc(O)cc1 [Compound A3], the “COX-2 % Inhibition” value falls from 78.4% to 77.4%.

First: COc1cc(CNC(=O)CCC/C=C\C/C=C\C/C=C\C/C=C\CCCCN=[N+]=[N-])ccc1O [Compound A7]
Second: COc1cc(CNC(=O)CCC/C=C\C/C=C\C/C=C\C/C=C\CCCCN=C=S)ccc1O [Compound A12]
The “COX-2 % Inhibition” value of the first is lower: 42.4% for the first, 46.2% for the second.

Source: US8202893B2, “Cannabinergic lipid ligands” (University of Connecticut, priority 2004, dated 2012)
